Data: US20250346583A1, “NEW DERIVATIVES FOR TREATING TRPM3 MEDIATED DISORDERS” (Katholieke Universiteit Leuven, priority 2022, published 2025)

Biological target: T1, mouse TRPM3α2 (mTRPM3) ion channel (Mus musculus, UniProt J9SQF3)
T1 construct: expressed in transfected cells; host or cells: flip-in HEK293
Test: TRPM3 ion channel driven Ca2+ uptake, Fluo-4 AM assay in overexpressing flip-in HEK293 cells
Type: cell-based
Details: inhibition of Ca2+ influx stimulated with Pregnenolone sulfate (PS) 50 μM
Method: Monitoring the TRPM3 Ion Channel Driven Ca^2+ Uptake.
In order to monitor the inhibition of the mouse TRPM3α2 (mTRPM3) ion channel by the compounds of the invention, a cellular system making use of an mTRPM3alpha2 or hTRPM3 overexpressing cell line (flip-in HEK293) was used. The TRPM3 channel was stimulated/opened with Pregnenolone sulfate (PS) (50 μM) which results in Ca^2+ influx.
For mTRPM3, the intracellular Ca^2+ was measured with a Calcium responsive dye, Fluor-4 AM ester (Invitrogen). Cells were cultured until a confluence of 80-90%, washed with Versene (Invitrogen) and detached from the surface by a short incubation with 0.05% Trypsin (Invitrogen). The trypsination process was stopped by the addition of complete cell culture medium (DMEM, glutamax,10% FCS, NEAA, Pen-Strep). Cells were collected and resuspended in Krebs buffer without Calcium at RT.
Prior the cell seeding (+2000 cells/well into a black, 384 well plate (Greiner)) the diluted compound was added in the assay plate, together with the PS dissolved in Krebs buffer containing Calcium. […] Directly after cell addition the plates were read on an Envision fluorescence reader (Perkin Elmer) by an Excitation of 485 nm and emission at 535 nm.
Channel inhibition was calculated compared to a non-PS stimulated control versus a condition stimulated with PS (50 μM) with vehicle. The ability of the compounds of the invention to inhibit this activity was determined as: Percentage inhibition=[1-((RFU determined for sample with test compound present - RFU determined for sample with positive control inhibitor) divided by (RFU determined in the presence of vehicle - RFU determined for sample with positive control inhibitor))]*100.
The activities of the Example compounds tested are depicted in the table below. The activity ranges A, B and C refer to IC50 values in the Fluo-4 AM assay as follows: “A”: IC50<1 μM; “B”: 1 μM<IC50<20 μM and “C”: IC50>20 μM

T1 sequence (J9SQF3 1-1709 isoform J9SQF3-12): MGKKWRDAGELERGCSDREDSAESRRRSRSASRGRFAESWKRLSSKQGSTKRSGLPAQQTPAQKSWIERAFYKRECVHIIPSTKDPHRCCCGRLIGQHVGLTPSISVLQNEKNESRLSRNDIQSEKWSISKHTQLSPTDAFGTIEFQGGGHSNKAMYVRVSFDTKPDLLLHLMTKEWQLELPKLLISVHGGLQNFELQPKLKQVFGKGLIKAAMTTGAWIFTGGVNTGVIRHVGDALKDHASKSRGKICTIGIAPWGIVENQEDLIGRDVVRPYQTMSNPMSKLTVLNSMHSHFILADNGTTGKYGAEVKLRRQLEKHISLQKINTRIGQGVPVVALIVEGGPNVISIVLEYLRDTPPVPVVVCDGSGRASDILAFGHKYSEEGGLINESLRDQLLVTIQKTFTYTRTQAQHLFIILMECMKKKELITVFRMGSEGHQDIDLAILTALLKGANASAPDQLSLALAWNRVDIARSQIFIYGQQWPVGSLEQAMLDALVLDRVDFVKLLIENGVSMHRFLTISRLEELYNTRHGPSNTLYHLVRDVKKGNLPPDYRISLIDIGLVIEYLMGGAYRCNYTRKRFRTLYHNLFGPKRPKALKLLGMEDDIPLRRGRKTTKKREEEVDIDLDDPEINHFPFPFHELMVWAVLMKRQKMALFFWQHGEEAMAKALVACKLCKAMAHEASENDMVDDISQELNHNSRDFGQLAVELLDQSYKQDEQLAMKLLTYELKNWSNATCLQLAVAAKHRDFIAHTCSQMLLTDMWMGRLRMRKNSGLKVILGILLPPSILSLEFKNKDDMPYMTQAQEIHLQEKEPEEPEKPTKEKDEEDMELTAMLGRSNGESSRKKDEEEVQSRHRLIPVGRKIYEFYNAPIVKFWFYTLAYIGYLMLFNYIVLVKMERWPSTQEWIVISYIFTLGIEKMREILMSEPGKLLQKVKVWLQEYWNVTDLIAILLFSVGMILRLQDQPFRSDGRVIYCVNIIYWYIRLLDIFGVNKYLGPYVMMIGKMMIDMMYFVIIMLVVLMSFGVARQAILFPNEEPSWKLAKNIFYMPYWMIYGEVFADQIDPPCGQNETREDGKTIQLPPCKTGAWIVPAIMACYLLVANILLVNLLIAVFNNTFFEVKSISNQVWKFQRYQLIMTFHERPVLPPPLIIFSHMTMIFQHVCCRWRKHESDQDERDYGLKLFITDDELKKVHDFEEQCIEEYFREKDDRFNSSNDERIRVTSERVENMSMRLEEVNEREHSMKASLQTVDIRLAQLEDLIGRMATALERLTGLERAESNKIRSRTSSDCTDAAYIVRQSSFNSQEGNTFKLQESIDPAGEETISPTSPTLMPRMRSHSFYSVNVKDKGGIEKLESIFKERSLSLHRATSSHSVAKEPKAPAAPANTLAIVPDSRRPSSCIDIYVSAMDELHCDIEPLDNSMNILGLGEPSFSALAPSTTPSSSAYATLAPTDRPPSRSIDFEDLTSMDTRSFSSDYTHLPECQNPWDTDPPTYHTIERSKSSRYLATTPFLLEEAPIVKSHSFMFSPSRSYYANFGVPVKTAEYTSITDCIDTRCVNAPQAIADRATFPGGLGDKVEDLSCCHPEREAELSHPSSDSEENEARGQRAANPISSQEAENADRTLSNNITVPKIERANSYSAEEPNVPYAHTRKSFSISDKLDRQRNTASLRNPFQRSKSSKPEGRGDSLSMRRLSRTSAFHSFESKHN

Structure (SMILES) | IC50
Cc1oc2ccc(OCc3cccnc3C(F)(F)F)cc2c1C1(CO)CC1 [Cpd 001, [1-(2-methyl-5-{[2-(trifluoromethyl)pyridin-3-yl]methoxy}-1-benzofuran-3-yl)cyclopropyl]methanol] | < 1 µM
Cc1oc2ccc(OCc3cccnc3C(F)(F)F)cc2c1C1(NC(=O)CO)CC1 [Cpd 003, 2-hydroxy-N-[1-(2-methyl-5-{[2-(trifluoromethyl)pyridin-3-yl]methoxy}-1-benzofuran-3-yl)cyclopropyl]acetamide] | < 1 µM
Cc1oc2ccc(OCc3cccnc3C(F)(F)F)cc2c1C1(NC(=O)C(C)(C)O)CC1 [Cpd 009, 2-hydroxy-2-methyl-N-[1-(2-methyl-5-{[2-(trifluoromethyl)pyridin-3-yl]methoxy}-1-benzofuran-3-yl)cyclopropyl]propanamide] | < 1 µM
COCC(=O)NC1(c2c(C)oc3ccc(OCc4cccnc4C(F)(F)F)cc23)CC1 [Cpd 010, 2-methoxy-N-[1-(2-methyl-5-{[2-(trifluoromethyl)pyridin-3-yl]methoxy}-1-benzofuran-3-yl)cyclopropyl]acetamide] | < 1 µM
Cc1ncsc1COc1ccc2oc(C)c(C3(C#N)CC3)c2c1 [Cpd 011, 1-{2-methyl-5-[(4-methyl-1,3-thiazol-5-yl)methoxy]-1-benzofuran-3-yl}cyclopropane-i-carbonitrile] | < 1 µM
Cc1oc2ccc(OCc3cccnc3C(F)(F)F)cc2c1C1(NCC(N)=O)CC1 [Cpd 012, 2-{[1-(2-methyl-5-{[2-(trifluoromethyl)pyridin-3-yl]methoxy}-1-benzofuran-3-yl)cyclopropyl]amino}acetamide] | < 1 µM
Cc1oc2ccc(OCc3cccnc3C(F)(F)F)cc2c1C1(NS(=O)(=O)CC2CC2)CC1 [Cpd 013, 1-cyclopropyl-N-[1-(2-methyl-5-{[2-(trifluoromethyl)pyridin-3-yl]methoxy}-1-benzofuran-3-yl)cyclopropyl]methanesulfonamide] | < 1 µM
Cc1oc2ccc(OCc3cccnc3O)cc2c1C1=NC(CO)(CO)CO1 [Cpd 018, 3-[({3-[4,4-bis(hydroxymethyl)-4,5-dihydro-1,3-oxazol-2-yl]-2-methyl-1-benzofuran-5-yl}oxy)methyl]pyridin-2-ol] | 1 to 20 µM
Cc1oc2ccc(OCc3ccccc3)cc2c1C1(CO)CC1 [Cpd 021, {1-[5-(benzyloxy)-2-methyl-1-benzofuran-3-yl]cyclopropyl}methanol] | 1 to 20 µM
Cc1ncsc1COc1ccc2oc(C)c(C3(C(N)=O)CC3)c2c1 [Cpd 022, 1-{2-methyl-5-[(4-methyl-1,3-thiazol-5-yl)methoxy]-1-benzofuran-3-yl}cyclopropane-1-carboxamide] | 1 to 20 µM
Cc1oc2ccc(OCc3ccccn3)cc2c1C1(N)CC1 [Cpd 024, 1-{2-methyl-5-[(pyridin-2-yl)methoxy]-1-benzofuran-3-yl}cyclopropan-i-amine] | 1 to 20 µM
Cc1oc2ccc(OCC3CC3)cc2c1C1(N)CC1 [Cpd 025, 1-[5-(cyclopropylmethoxy)-2-methyl-1-benzofuran-3-yl]cyclopropan-i-amine] | > 20 µM
Cc1ncc(COc2ccc3oc(C)c(C4(N)CC4)c3c2)s1 [Cpd 026, 1-{2-methyl-5-[(2-methyl-1,3-thiazol-5-yl)methoxy]-1-benzofuran-3-yl}cyclopropan-i-amine] | > 20 µM
Cc1oc2ccc(OCc3ccccc3)cc2c1-c1cncc(CC(F)(F)F)n1 [Cpd 029, 2-[5-(benzyloxy)-2-methyl-1-benzofuran-3-yl]-6-(2,2,2-trifluoroethyl)pyrazine] | > 20 µM

Next, values leading:

IC50 | Structure (SMILES)
< 1 µM | Cc1ncsc1COc1ccc2oc(C)c(-c3ncc(CO)o3)c2c1 [Cpd 002, (2-{2-methyl-5-[(4-methyl-1,3-thiazol-5-yl)methoxy]-1-benzofuran-3-yl}-1,3-oxazol-5-yl)methanol]
< 1 µM | Cc1ncsc1COc1ccc2oc(C)c(C3(CO)CC3)c2c1 [Cpd 004, (1-{2-methyl-5-[(4-methyl-1,3-thiazol-5-yl)methoxy]-1-benzofuran-3-yl}cyclopropyl)methanol]
< 1 µM | Cc1oc2ccc(OCc3cccnc3C(F)(F)F)cc2c1C1(NS(=O)(=O)C2CC2)CC1 [Cpd 005, N-[1-(2-methyl-5-{[2-(trifluoromethyl)pyridin-3-yl]methoxy}-1-benzofuran-3-yl)cyclopropyl]cyclopropanesulfonamide]
< 1 µM | Cc1oc2ccc(OCc3cccnc3C(F)(F)F)cc2c1C1(NS(C)(=O)=O)CC1 [Cpd 006, N-[1-(2-methyl-5-{[2-(trifluoromethyl)pyridin-3-yl]methoxy}-1-benzofuran-3-yl)cyclopropyl]methanesulfonamide]
< 1 µM | Cc1ncsc1COc1ccc2oc(C)c(-c3ncc(CO)[nH]3)c2c1 [Cpd 007, (2-{2-methyl-5-[(4-methyl-1,3-thiazol-5-yl)methoxy]-1-benzofuran-3-yl}-1H-imidazol-4-yl)methanol]
< 1 µM | COCCC(=O)NC1(c2c(C)oc3ccc(OCc4cccnc4C(F)(F)F)cc23)CC1 [Cpd 008, 3-methoxy-N-[1-(2-methyl-5-{[2-(trifluoromethyl)pyridin-3-yl]methoxy}-1-benzofuran-3-yl)cyclopropyl]propanamide]
1 to 20 µM | Cc1oc2ccc(OCc3cccnc3C(F)(F)F)cc2c1C1(N)CC1 [Cpd 014, 1-(2-methyl-5-{[2-(trifluoromethyl)pyridin-3-yl]methoxy}-1-benzofuran-3-yl)cyclopropan-1-amine]
1 to 20 µM | Cc1oc2ccc(OCc3cccnc3C(F)(F)F)cc2c1C1(NC(C)C(N)=O)CC1 (centres unmarked) [Cpd 015, 2-{[1-(2-methyl-5-{[2-(trifluoromethyl)pyridin-3-yl]methoxy}-1-benzofuran-3-yl)cyclopropyl]amino}propanamide]
1 to 20 µM | Cc1oc2ccc(OCc3cccnc3C(F)(F)F)cc2c1C1(CN)CC1 [Cpd 016, 1-[1-(2-methyl-5-{[2-(trifluoromethyl)pyridin-3-yl]methoxy}-1-benzofuran-3-yl)cyclopropyl]methanamine]
1 to 20 µM | Cc1ncsc1COc1ccc2oc(C)c(C3(NC(=O)CO)CC3)c2c1 [Cpd 017, 2-hydroxy-N-(1-{2-methyl-5-[(4-methyl-1,3-thiazol-5-yl)methoxy]-1-benzofuran-3-yl}cyclopropyl)acetamide]
1 to 20 µM | Cc1oc2ccc(OCc3ccccc3)cc2c1C1(C#N)CC1 [Cpd 019, 1-[5-(benzyloxy)-2-methyl-1-benzofuran-3-yl]cyclopropane-1-carbonitrile]
1 to 20 µM | Cc1ncsc1COc1ccc2oc(C)c(C3(C(=O)NCCO)CC3)c2c1 [Cpd 020, N-(2-hydroxyethyl)-1-{2-methyl-5-[(4-methyl-1,3-thiazol-5-yl)methoxy]-1-benzofuran-3-yl}cyclopropane-1-carboxamide]
1 to 20 µM | Cc1oc2ccc(OCc3c(F)cccc3Cl)cc2c1-c1nn[nH]n1 [Cpd 023, 5-{5-[(2-chloro-6-fluorophenyl)methoxy]-2-methyl-1-benzofuran-3-yl}-2H-1,2,3,4-tetrazole]
> 20 µM | Cc1ncsc1COc1ccc2oc(C)c(C3(N)CC3)c2c1 [Cpd 027, 1-{2-methyl-5-[(4-methyl-1,3-thiazol-5-yl)methoxy]-1-benzofuran-3-yl}cyclopropan-i-amine]
> 20 µM | Cc1noc(-c2c(C)oc3ccc(OCc4c(F)cccc4Cl)cc23)n1 [Cpd 028, 5-{5-[(2-chloro-6-fluorophenyl)methoxy]-2-methyl-1-benzofuran-3-yl}-3-methyl-1,2,4-oxadiazole]
> 20 µM | Cc1oc2ccc(OCc3ccccc3)cc2c1-c1nccc(CC(F)(F)F)n1 [Cpd 030, 2-[5-(benzyloxy)-2-methyl-1-benzofuran-3-yl]-4-(2,2,2-trifluoroethyl)pyrimidine]
> 20 µM | Cc1oc2ccc(OCc3ccccc3)cc2c1-c1cncc(CO)n1 [Cpd 031, {6-[5-(benzyloxy)-2-methyl-1-benzofuran-3-yl]pyrazin-2-yl}methanol]
> 20 µM | Cc1oc2ccc(OCc3ccccc3)cc2c1-c1nccc(CO)n1 [Cpd 032, {2-[5-(benzyloxy)-2-methyl-1-benzofuran-3-yl]pyrimidin-4-yl}methanol]
